Values after ≈ are worked out from the molar mass of the structure shown. Like-named read-outs stand apart in the source and are kept apart here.

Series [1] can be described thus: In vitro cytotoxicity (WST-1), human hepatocellular carcinoma. The format is cell-based. Particulars: Hep G2 human hepatocellular carcinoma cells, 24 h exposure. The method, then: Cells were passaged every 3 days. Assays were performed in 96 well plates in duplicate. Wells were seeded with 50 000 cells.
In general terms: Tetrazolium dyes change colour on reduction, which living cells bring about.

The subject of series [2] is Giardia duodenalis BAH2c2 strain, assemblage A. Kind of series: Resazurin reduction assay, assemblage A isolate. Particulars: BAH2c2, 24 h; for IC50: resazurin metabolic assay, read-out: IC50, Assemblage A. The class given is cell-based. The method, then:
(§1) G. duodenalis (BAH2c2 and BAH12 strain) was cultivated according to the method of Clark and Diamond in Keister's modified TYI-S-33 medium, supplemented with heat inactivated foetal bovine serum (Hyclone™, Thermo Fisher Scientific, Scoresby, Victoria, Australia) at 37 °C in plastic 9 mL screw-capped test tubes (nunc, Thermo Fisher Scientific, Scoresby, Victoria, Australia). Subcultures were performed once a confluent monolayer was observed, approximately 2–3 times per week ([Clark and Diamond, 2002]).
(§2) The in-vitro compound efficacy was determined using a resazurin reduction assay as previously described ([Benere et al., 2007]). The media of confluent cultures was replaced with fresh media and the cultures were placed on ice for 40 min to detach trophozoites. Trophozoites were enumerated using a haemocytometer and 50 000 trophozoites were added to each test well of a 96 well plate. Doubling or tripling dilutions of the test compounds were added to wells beginning at 25 or 50 μM compound concentration (previously prepared in DMSO). Metronidazole and DMSO (vehicle only) were used as controls. Plates were incubated under anaerobic conditions, using anaerobic gas generating sachets, (AnaeroGen, Thermo Fisher Scientific, Scoresby, Victoria, Australia) for 24 h at 37 °C. After incubation the media was removed and replaced with an equal volume of warm PBS. Resazurin (Alamarblue, Thermo Fisher Scientific, Scoresby, Victoria, Australia) was then added at 10% of the total volume of the wells. Plates were further incubated (1.5 h) for colour development and absorbance read at 570 nm and 630 nm. The percentage resazurin reduction was then calculated using the following formula:((εoxi630 x A570) – (εoxi570 x A630))/((εred570 x C630)-([…])) x 100Where: εoxi630 = 34798, εoxi570 = 80586, A570 = absorbance at 570 nm, A630 = absorbance at 630 nm, εred570 = 155677, εred630 = 5494, C630 = absorbance of negative control well at 630 nm and C570 = absorbance of negative control well at 570 nm.
(§3) For the resazurin reduction assay the mean and standard error of the mean were determined with each assay completed in triplicate. The IC50 was calculated using the log (inhibitor) vs. normalised response – variable slope function in Graphpad Prism. For the adherence assay mean and standard error of the mean were calculated and data analysed using an unpaired t-test, relative to untreated control.
(§4) The IC50 of each compound was determined using a resazurin reduction assay, which measures the metabolic activity of cells, using the log (inhibitor) vs. normalised response – variable slope function in Graphpad Prism. The compounds were tested against an assemblage A (BAH2c2, 24 h) and an assemblage B (BAH12, 24 h) isolate (Table 1). […] The effect of the compounds on the proliferation of Giardia trophozoites (BAH2c2) was also determined.
Absorbance was measured (630 and 570 nm), percent reduction of resazurin calculated and data presented as a percentage of the growth control. Treatment groups are: square - metronidazole; triangle –NCL 099; diamond - robenidine; and circle - NCL 062. Error ± SEM, n = 3. Data represents a typical experiment. Note the break in the x-axis indicates a change in the scale of drug concentration.

Series [3] has as its system Giardia duodenalis BAH12, assemblage B. Kind of series: Resazurin reduction assay, assemblage B isolate. Particulars: BAH12, 24 h. The class given is cell-based. The procedure: as §1, §2, §3, §4
A general note: The colour change of resazurin is a common sign of viable cells or microbes.

The test system of series [4] is G. duodenalis trophozoites. The series is described as follows: Giardia recovery assay. The note with it: 5 h at 5x the IC50, counts at 24 and 48 h post exposure. The class given is cell-based, Giardia duodenalis. The procedure: G. duodenalis trophozoites were harvested on ice as outlined above and 5 × 10^5 cells/mL were added to 1.5 mL centrifuge tubes. […] After exposure cells were collected by placing tubes on ice for 40 min followed by centrifugation at 900×g for 5 min. The supernatant was removed and cells were resuspended in 8 mL of fresh media (in a 9 mL culture tube). The number of trophozoites was counted using a haemocytometer and cells were incubated for 48 h with cell numbers being determined at 24 and 48 h.
Fig. 7 Recovery assay of Giardia duodenalis exposed to robenidine and metronidazole. Giardia trophozoites were exposed to robenidine or metronidazole for 5 h at 5x the IC50. Key: closed circle – growth control, triangle – metronidazole, square – robenidine, open circle – NCL 062, diamond – NCL 099. Cell numbers were determined at 24 and 48 h post exposure. Error ± SD.

Series [5] relates to Giardia duodenalis trophozoites. The series is described as follows: Modified adherence assay. The class given is cell-based. The note with it: 4 μM, 5 h exposure. The method, then: A second screening method, based on counting adherent trophozoites, was developed and used to validate the primary screen method, modified from earlier adherence assay protocols ([Crouch et al., 1986]). The assay was prepared in 24 well plates with plastic coverslips placed in the bottom. Trophozoites were prepared as above by placing on ice and ∼5 × 10^5 cells/mL were added to each well. Drugs prepared in DMSO were added at the required concentration, with the DMSO concentration never exceeding 1%. Assay plates were incubated for 5 h at 37 °C under anaerobic conditions, the media removed and cells adhering to the coverslips were fixed with glutaraldehyde or methanol. Once the coverslips were dry, cells were stained with a Romanowsky stain variant (Rapid stain), fixed to a glass slide and imaged at 10x or 100x magnification. Images (10x magnification) were processed with DotCount v1.2 software (http://reuter.mit.edu/, 2008–2012 ^© Martin Reuter) to count the number of cells present and data analysed using GraphPad Prism version 6.00 for Windows, GraphPad Software, La Jolla California USA, www.graphpad.com. Images (100x magnification) were assessed for obvious morphological changes.
The results for the in vitro drug efficacy studies were analysed using GraphPad Prism version 6.00 for Windows, GraphPad Software, La Jolla California USA, www.graphpad.com. For the resazurin reduction assay the mean and standard error of the mean were determined with each assay completed in triplicate. The IC50 was calculated using the log (inhibitor) vs. normalised response – variable slope function in Graphpad Prism. For the adherence assay mean and standard error of the mean were calculated and data analysed using an unpaired t-test, relative to untreated control.
Fig. 3 Inhibition of adherence of Giardia duodenalis by metronidazole (Mz), robenidine, NCL 062 and NCL 099. Cells were exposed to the compounds for 5 h before staining. Stained cells were imaged at 10x magnification and counted using DotCount™ software. Each assay was completed in triplicate and 5 images taken per sample. Top. Number of adherent trophozoites after exposure to 4 μM of each compound for 5 h; Bottom. An example of the Dotcount software identifying trophozoites at higher magnification. Left: stained trophozoites, Right: highlighted trophozoites identified by the Dotcount software. Each highlighted cell is counted individually. Error ± SEM. * p-value <0.05, ** p-value <0.0001.

The next series has as its system bacteria. Kind of series: Off-target antibacterial effects. The class given is cell-based.

What is called GI50 is the concentration at which growth is held to half of that of the control. Higher therefore signals lower sensitivity of the cells. Usually IC50 stands for the concentration needed to halve the response being measured. For the compound `N=C(N/N=C/c1ccc(Cl)cc1)N/N=C/c1ccc(Cl)cc1` [Robenidine, robenidine], in series [1], the GI50 at 24 h was found to be 25.5 µM. In addition, the IC50 in series [2] worked out at 2900 ± 2900 nM; in series [2] (Giardia duodenalis, 24 h), 2000 nM; in series [3] (Giardia duodenalis, resazurin metabolic assay) it was 4.7 ± 0.6 µM. Moreover, the “MLC (minimum lethal concentration), Assemblage A” value in series [2] (concentration at which no metabolism of resazurin was observed) was in the range of 2.8 to 8.3 µM. In addition, the “MLC, Assemblage B” value in series [3] amounted to 16.6 µM (≈ 5.55 µg/mL). Also, the “Recovery of trophozoites after short-term exposure” value in series [4] was “unable to recover”. Also, in series [5], the “Effect on adherence of trophozoites” value was “complete inhibition of adherence”. The Off-target antibacterial effects result in the series with bacteria is on record as “off-target antibacterial effects”.

For the origin of these results see paper PMC6479099, “Aminoguanidines: New leads for treatment of Giardia duodenalis infection” (International Journal for Parasitology: Drugs and Drug …, 2019).
